Test results reported in US9561210B2, “Therapeutic agent for ocular disease” (AskAt Inc., priority 2013, dated 2017).

Experiments:
[1] = system: human retinal microvascular endothelial cells (HRMEC); assay: VEGF-induced HRMEC proliferation study; type: cell-based
Procedure: VEGF-Induced Human Retinal Microvascular Endothelial Cells (HRMEC) Proliferation Study
VEGF is a factor which promotes neovascularization and is thought to be one of the causes of development or progression of age-related macular degeneration (Prog. Retinal Eye Res., 22 (1), 1-29 (2003)). Therefore, the inhibitory effect of the compounds of the invention against VEGF-induced cell proliferation is assessed by using human retinal vascular endothelial cells (HRMEC).
HRMEC are seeded in 96-well plates at 2.0×10^3 cells/well, and is cultured under the conditions of 5% CO2/95% air for 24 hours. Then the culture medium is exchanged with CSC medium containing 10% fetal bovine serum and the cells are cultured for 24 hours. The culture broth is exchanged with vehicle medium or study medium containing the compound of the invention at 0.1, 1.0, 10, or 100 microM. After preincubation for 1 hour, VEGF-A solution is added to be a concentration of 10 ng/ml, and the cells cultured for 24 hours. The culture broth without adding VEGF-A solution is also treated in the same manner. Then to the culture broth is added CCK-8, and the cells are cultured for 3 hours, then the absorbance (OD492) is measured.
In accordance with the following formula, the cell proliferation inhibition rate (%) of each compound-treated group is calculated. The number of examples of each group is six. Cell proliferation inhibition rate (%)=([…])×100 [equation] BO: absorbance of vehicle-treated group BX: absorbance of compound-treated group BN: absorbance of non-treated group

[2] = system: choroidal neovascularization; assay: Laser-induced choroidal neovascularization (CNV) model; type: in vivo, male C57BL/6J mouse; details: in comparison to the vehicle-treated group
Procedure: Laser-Induced Choroidal Neovascularization (CNV) Model A male C57BL/6J mouse is used. Mydrin P ophthalmic solution (registered trademark, Santen Pharmaceutical) is instilled into the right eye of the mouse to cause mydriasis. Animals are anesthetized, and laser irradiation is performed on around the circumference of the optic disk with eight equally space using a laser photocoagulation apparatus. After photocoagulation, intravitreal administration of drugs to the right eye (administering 2 microL of a solution of 60 microM and 600 microM using a solvent obtained by mixing 0.1N NaOH and pH 7.2 PBS containing 1.5×10^-3N HCl, at the ratio of 16:84) or oral administration/subcutaneous administration/intraperitoneal administration is conducted. After instillation of […] (registered trademark, Daiichi Sankyo) ophthalmic solution 0.5% into the right eye, the ocular fundus photography is promptly performed using an ocular fundus camera. […] Choroidal flat mounts specimens are observed using a confocal laser scanning microscope, and the CNV area of the image is calculated using the analysis software OLYMPUS FLUOVIEW FV1000.

CC(C)(C)c1cc2c(cc1Cl)C=C(C(=O)O)[C@@H](C(F)(F)F)O2 [Compound A, (S)-6-chloro-7-(1,1-dimethylethyl)-2-trifluoromethyl-2H-1-benzopyran-3-carboxylic acid]
effect on the proliferation of HRMEC ([1]; Compound A alone, without VEGF-A, FIG. 1 left side): no effect
inhibition of the proliferation of HRMEC induced by VEGF-A ([1]; VEGF-A 10 ng/ml, 24 hours, compound at 0.1, 1.0, 10, or 100 microM, FIG. 1 right side): inhibits the proliferation of HRMEC induced by VEGF-A in a dose-dependent manner
inhibition of VEGF-A-induced cell proliferation ([1]; at 10 to 100 microM, VEGF-A 10 ng/ml): inhibits the cell proliferation to control levels
CNV area ([2]; choroidal flat mount, day 15 after laser, FIG. 2): significantly reduced
CNV area (pathological image) ([2]; histopathological specimens, FIG. 3): significantly reduced
